Measured values: PMC11207335, “In Vitro Metabolism and Transport Characteristics of Zastaprazan” (Pharmaceutics, 2024)
Where two headings read alike, the source gives them in different places. One block for each compound: values may come before it.

Key:
[1] = set-up: method as in PMID 29863280, doi:10.1007/s11938-020-00330-x; conditions: no signs of hepatotoxicity; cited from earlier work
[2] = tested on: erosive esophagitis; set-up: method as in PMID 36504556; conditions: 8-week treatment, patients with erosive esophagitis; cited from earlier work
[3] = tested on: CYP3A4; set-up: method as in PMID 34072547; conditions: cited from earlier work
[4] = molecular target: T1, human cDNA-expressed CYP3A4 (Homo sapiens, UniProt P08684); assay: Enzyme kinetics of JP-1366 metabolism in cDNA-expressed CYP3A4; format: in vitro ADME
T1 construct: purchased Corning Life Sciences
Procedure: (§1) The reaction was initiated by adding 5 μL of NADPH-generating system in triplicate, and the mixture was further incubated for 30 min at 37 °C in a shaking water bath.
(§2) The concentrations of the metabolites were quantitated, and their formation rates (pmol/mg protein/min) were calculated by dividing the amounts of metabolites formed from the incubation with human liver microsomes and human cDNA-expressed CYP or UGT enzymes by the incubation time.

[5] = tested on: human liver microsomes (HLM); assay: Enzyme kinetics of JP-1366 metabolism in human liver microsomes; format: in vitro ADME; conditions: for Vmax: formation of the labelled metabolite from JP-1366, HLM
Procedure: as §1, §2

[6] = molecular target: T2, human cDNA-expressed CYP2C9 (Homo sapiens, UniProt P11712); assay: Enzyme kinetics of JP-1366 metabolism in cDNA-expressed CYP2C9; format: in vitro ADME
T2 construct: purchased Corning Life Sciences
Procedure: as §1, §2

[7] = molecular target: T3, human cDNA-expressed CYP2C19 (Homo sapiens, UniProt P33261); assay: Enzyme kinetics of JP-1366 metabolism in cDNA-expressed CYP2C19; format: in vitro ADME
T3 construct: purchased Corning Life Sciences
Procedure: as §1, §2

[8] = tested on: CYP3A4/5; assay: Combined contribution of CYP3A4/5 to formation of major JP-1366 metabolites; format: in vitro ADME, human; conditions: sum of CYP3A4 and CYP3A5 contributions
Procedure: as §1, §2

[9] = tested on: human, dog, monkey, mouse, and rat hepatocytes; assay: In vitro metabolic profiling of JP-1366 in hepatocytes; format: in vitro ADME; conditions: 10 µM JP-1366, 60 min; H human, D dog, Mk monkey, M mouse, R rat
Procedure: Cryopreserved human, dog, monkey, mouse, and rat hepatocytes were purified and recovered according to the manufacturer’s protocol. […] The metabolic reaction in each sample well was quenched by adding 120 μL of ice-cold acetonitrile.
MS spectra were obtained in positive-ion mode using electrospray ionization under optimized conditions as follows: capillary temperature, 350 °C; sheath gas flow rate, 40 (arbitrary units); aux gas flow rate, 10 (arbitrary units); and aux gas heater temperature, 350 °C. Full MS scan with data-dependent MS/MS was performed from m/z 100 to m/z 1000.

[10] = molecular target: T4, human cDNA-expressed CYP3A5 (Homo sapiens, UniProt P20815); assay: Enzyme kinetics of JP-1366 metabolism in cDNA-expressed CYP3A5; format: in vitro ADME
T4 construct: purchased Corning Life Sciences
Procedure: as §1, §2

[11] = molecular target: T5, human cDNA-expressed CYP2D6 (Homo sapiens, UniProt P10635); assay: Enzyme kinetics of JP-1366 metabolism in cDNA-expressed CYP2D6; format: in vitro ADME
T5 construct: purchased Corning Life Sciences
Procedure: as §1, §2

[12] = tested on: human liver microsomes; assay: JP-1366 metabolism in human liver microsomes with NADPH, with or without SKF-525A; format: in vitro ADME
[13] = tested on: human liver microsomes (HLM); assay: Enzyme kinetics of M1 glucuronidation to M15 in human liver microsomes; format: in vitro ADME; conditions: formation of M15 from M1, HLM
Procedure: (§3) By adding 5 μL of UDPGA (final concentration, 5 mM), the reaction was initiated, and the mixture was further incubated for 30 min at 37 °C in a shaking water bath. The reaction was terminated by adding 100 μL of ice-cold acetonitrile containing 5 ng/mL of lansoprazole (IS).
as §2

[14] = molecular target: T6, human cDNA-expressed UGT2B17 (Homo sapiens, UniProt O75795); assay: Enzyme kinetics of M1 glucuronidation to M15 in cDNA-expressed UGT2B17; format: in vitro ADME; conditions: formation of M15 from M1, UGT2B17
T6 construct: purchased Corning Life Sciences
Procedure: as §3, §2

[15] = molecular target: T7, human cDNA-expressed UGT2B7 (Homo sapiens, UniProt P16662); assay: Enzyme kinetics of M1 glucuronidation to M15 in cDNA-expressed UGT2B7; format: in vitro ADME; conditions: formation of M15 from M1, UGT2B7
T7 construct: purchased Corning Life Sciences
Procedure: as §3, §2

[16] = tested on: esterase; conditions: 5 μM JP-1366, human liver microsomes
Procedure: The experimental protocols were performed in accordance with FDA guidelines and the previous reports with slight modifications. […] The reactions were stopped by adding 100 μL of lansoprazole (IS) in ice-cold acetonitrile (100 ng/mL).

[17] = Apparent permeability in Caco-2 cells; format: in vitro ADME; conditions: human
Procedure: Caco-2 cells (passage no. 41–42) were grown in tissue culture flasks containing Dulbecco’s Modified Eagle Medium supplemented with 20% FBS, 1% nonessential amino acids, and 1% penicillin–streptomycin. […] The culture medium was replaced every other day. On the day of the experiment, the growth medium was discarded, and the attached cells were washed with prewarmed HBSS (pH 7.4) and preincubated with HBSS for 20 min at 37 °C. […] Aliquots (30 μL) of each sample were vortex-mixed with 90 μL of IS solution for 1 min, and then centrifugation was performed at 13,500 rpm at 4 °C for 5 min. Aliquots (5 μL) of the supernatant were injected into the LC-MS/MS for analysis.

[18] = cited from earlier work
[19] = tested on: gastric pH; conditions: cited from earlier work; for % time pH > 4.0 over a period of 24 h: 40 mg dose group, healthy subjects
[20] = set-up: method as in PMID 16011666; conditions: cited from earlier work
[21] = tested on: gastric pH; set-up: method as in PMID 31437865; conditions: cited from earlier work
[22] = molecular target: porcine H^+/K^+-ATPase; set-up: method as in PMID 35745870, PMID 33355910; conditions: reversible inhibition; cited from earlier work
[23] = tested on: gastric pH; set-up: method as in PMID 35146797; conditions: 50 mg of tegoprazan dose; cited from earlier work
[24] = tested on: CYP3A4; set-up: method as in PMID 35745870; conditions: cited from earlier work
[25] = formation of the labelled metabolite from JP-1366, CYP3A4
[26] = formation of the labelled metabolite from JP-1366, CYP2C9
[27] = formation of the labelled metabolite from JP-1366, CYP2C19
[28] = formation of the labelled metabolite from JP-1366, CYP3A5
[29] = formation of the labelled metabolite from JP-1366, CYP2D6

T5 sequence (P10635 whole entry): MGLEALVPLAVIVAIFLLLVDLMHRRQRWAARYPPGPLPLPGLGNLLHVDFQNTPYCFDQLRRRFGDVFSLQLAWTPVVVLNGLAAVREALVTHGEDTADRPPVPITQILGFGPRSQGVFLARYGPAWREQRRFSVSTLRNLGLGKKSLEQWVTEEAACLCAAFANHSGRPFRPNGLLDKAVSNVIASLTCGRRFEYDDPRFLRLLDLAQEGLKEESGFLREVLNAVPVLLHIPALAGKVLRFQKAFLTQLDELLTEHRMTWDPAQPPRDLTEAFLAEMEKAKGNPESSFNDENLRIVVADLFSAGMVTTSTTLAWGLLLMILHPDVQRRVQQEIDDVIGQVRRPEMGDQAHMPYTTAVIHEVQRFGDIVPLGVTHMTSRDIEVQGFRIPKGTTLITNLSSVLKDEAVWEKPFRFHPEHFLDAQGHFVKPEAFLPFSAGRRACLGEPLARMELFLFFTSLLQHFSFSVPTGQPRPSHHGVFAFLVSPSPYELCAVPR
T3 sequence (P33261 whole entry): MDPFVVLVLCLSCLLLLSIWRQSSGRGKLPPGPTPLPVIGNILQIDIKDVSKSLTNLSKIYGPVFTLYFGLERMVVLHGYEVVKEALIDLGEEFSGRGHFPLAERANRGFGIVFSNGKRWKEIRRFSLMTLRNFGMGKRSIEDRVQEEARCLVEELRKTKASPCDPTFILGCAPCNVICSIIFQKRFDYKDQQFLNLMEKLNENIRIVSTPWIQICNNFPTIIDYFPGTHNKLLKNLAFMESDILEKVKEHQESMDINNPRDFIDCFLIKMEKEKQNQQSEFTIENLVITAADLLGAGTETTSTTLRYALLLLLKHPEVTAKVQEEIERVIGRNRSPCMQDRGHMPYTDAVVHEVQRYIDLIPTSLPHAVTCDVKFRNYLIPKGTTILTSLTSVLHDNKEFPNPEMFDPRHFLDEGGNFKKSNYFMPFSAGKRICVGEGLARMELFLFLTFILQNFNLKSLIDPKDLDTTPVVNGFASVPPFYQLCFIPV
T2 sequence (P11712 whole entry): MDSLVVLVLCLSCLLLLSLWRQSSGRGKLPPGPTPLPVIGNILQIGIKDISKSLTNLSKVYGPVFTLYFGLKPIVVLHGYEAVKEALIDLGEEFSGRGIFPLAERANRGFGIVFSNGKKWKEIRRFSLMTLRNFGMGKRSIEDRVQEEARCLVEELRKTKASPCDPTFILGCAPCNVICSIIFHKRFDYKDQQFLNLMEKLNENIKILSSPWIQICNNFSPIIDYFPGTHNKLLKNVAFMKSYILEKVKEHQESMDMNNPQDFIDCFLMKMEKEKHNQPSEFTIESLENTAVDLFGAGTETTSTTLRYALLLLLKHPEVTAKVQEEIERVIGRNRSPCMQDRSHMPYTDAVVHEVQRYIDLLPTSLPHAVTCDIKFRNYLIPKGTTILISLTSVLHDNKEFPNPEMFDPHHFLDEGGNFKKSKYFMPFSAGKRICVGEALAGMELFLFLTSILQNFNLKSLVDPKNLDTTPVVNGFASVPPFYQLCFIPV
T4 sequence (P20815 whole entry): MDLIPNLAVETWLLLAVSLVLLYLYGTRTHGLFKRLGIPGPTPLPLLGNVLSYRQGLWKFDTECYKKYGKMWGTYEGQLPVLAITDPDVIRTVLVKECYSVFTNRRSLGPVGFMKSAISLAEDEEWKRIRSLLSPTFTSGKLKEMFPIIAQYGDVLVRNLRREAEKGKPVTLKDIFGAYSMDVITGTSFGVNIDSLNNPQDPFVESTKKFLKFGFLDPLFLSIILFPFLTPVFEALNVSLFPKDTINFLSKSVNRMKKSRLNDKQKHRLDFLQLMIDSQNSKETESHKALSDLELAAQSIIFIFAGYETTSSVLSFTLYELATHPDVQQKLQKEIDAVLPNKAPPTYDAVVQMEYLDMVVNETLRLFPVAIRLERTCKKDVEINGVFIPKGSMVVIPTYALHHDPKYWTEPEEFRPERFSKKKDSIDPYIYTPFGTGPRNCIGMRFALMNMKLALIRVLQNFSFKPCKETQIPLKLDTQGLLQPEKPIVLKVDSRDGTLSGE
T1 sequence (P08684 whole entry): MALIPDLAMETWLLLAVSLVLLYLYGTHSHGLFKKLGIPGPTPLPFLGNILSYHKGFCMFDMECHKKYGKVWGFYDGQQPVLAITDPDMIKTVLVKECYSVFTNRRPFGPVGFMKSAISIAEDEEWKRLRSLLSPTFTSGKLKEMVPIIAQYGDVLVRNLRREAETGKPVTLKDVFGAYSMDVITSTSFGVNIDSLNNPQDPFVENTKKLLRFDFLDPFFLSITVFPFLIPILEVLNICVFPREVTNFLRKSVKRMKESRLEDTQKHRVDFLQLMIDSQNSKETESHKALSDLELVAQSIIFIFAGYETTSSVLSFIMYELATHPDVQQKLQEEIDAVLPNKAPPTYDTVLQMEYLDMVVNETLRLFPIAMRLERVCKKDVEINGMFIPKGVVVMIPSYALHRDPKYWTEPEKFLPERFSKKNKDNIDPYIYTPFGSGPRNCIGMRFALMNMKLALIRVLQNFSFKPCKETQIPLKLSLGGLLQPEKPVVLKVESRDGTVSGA
T7 sequence (P16662 24-529): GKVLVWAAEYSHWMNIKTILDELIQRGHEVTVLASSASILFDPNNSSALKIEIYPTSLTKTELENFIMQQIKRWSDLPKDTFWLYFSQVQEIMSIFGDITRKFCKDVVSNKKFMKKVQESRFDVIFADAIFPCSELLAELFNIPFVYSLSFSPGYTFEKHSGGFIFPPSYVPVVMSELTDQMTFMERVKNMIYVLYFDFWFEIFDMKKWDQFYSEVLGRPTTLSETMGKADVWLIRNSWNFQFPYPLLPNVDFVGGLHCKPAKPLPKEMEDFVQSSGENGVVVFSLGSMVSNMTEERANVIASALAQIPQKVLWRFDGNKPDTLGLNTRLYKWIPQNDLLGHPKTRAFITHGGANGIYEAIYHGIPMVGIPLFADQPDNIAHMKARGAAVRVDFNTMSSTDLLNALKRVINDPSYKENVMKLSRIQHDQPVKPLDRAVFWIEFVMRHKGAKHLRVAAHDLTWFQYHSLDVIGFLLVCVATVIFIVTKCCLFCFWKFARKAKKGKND
T6 sequence (O75795 24-530): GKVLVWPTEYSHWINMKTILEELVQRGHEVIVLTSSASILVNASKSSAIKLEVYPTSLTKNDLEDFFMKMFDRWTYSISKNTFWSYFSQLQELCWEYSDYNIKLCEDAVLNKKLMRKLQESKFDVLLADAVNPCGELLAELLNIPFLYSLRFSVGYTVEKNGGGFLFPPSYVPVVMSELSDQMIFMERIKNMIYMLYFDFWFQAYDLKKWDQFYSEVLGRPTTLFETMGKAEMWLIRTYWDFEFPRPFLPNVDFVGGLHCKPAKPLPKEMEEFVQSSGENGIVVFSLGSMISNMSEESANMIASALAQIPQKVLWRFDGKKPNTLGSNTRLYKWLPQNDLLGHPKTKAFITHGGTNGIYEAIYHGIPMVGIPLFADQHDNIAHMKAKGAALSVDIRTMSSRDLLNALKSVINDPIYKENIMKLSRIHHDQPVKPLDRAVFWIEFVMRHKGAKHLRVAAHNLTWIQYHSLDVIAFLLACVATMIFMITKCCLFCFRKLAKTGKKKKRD

Structure (SMILES): CNCc1cn(S(=O)(=O)c2cccc(F)c2)c(-c2ccc(F)cc2F)c1OC [Fexuprazan]
tolerability [1]: well tolerated | erosive esophagitis healing versus esomeprazole 40 mg [2]: non-inferior | contribution of CYP3A4 to formation of M11 (hydroxylation) [3]: > 60% | contribution of CYP3A4 to formation of M14 (oxidative deamination) [3]: more than 80%

CLint [4, 25]: 0.77 μL/min/pmol CYP | n (Hill coefficient) [4, 25]: 1.8 | Contribution (%) ([4]; relative contribution of CYP3A4 to formation of the labelled metabolite): 28.1% | Vmax [5]: 798.8 pmol/min/mg protein | Ki ([5]; substrate inhibition kinetics, formation of the labelled metabolite, HLM): 105 µM | CLint [6, 26]: 0.0070 μL/min/pmol CYP | n (Hill coefficient) [6, 26]: 0.7 | Contribution (%) ([6]; relative contribution of CYP2C9 to formation of the labelled metabolite): 2.8% | CLint [7, 27]: 0.0023 μL/min/pmol CYP | n (Hill coefficient) [7, 27]: 0.6 | Contribution (%) ([7]; relative contribution of CYP2C19 to formation of the labelled metabolite): 0.1% | contribution of CYP3A4/5 to formation of the metabolite from JP-1366 [8]: 97.0% | Hepatocytes (species in which the metabolite was found) [9]: H, D, Mk, M, R | CLint [10, 28]: 0.41 μL/min/pmol CYP | n (Hill coefficient) [10, 28]: 1.5 | Contribution (%) ([10]; relative contribution of CYP3A5 to formation of the labelled metabolite): 68.9% | CLint [11, 29]: 0.0015 μL/min/pmol CYP | n (Hill coefficient) [11, 29]: 0.7 | Contribution (%) ([11]; relative contribution of CYP2D6 to formation of the labelled metabolite): 0.1%
Structure (SMILES): Cc1nc2c(N)cc(C(=O)N3CCC3)cn2c1C [M6, (8-amino-2,3-dimethylimidazo[1,2-a]pyridin-6-yl)(azetidin-1-yl)methanone]

detection of metabolite after incubation of JP-1366 in human liver microsomes with NADPH ([12]; 5 μM JP-1366): not detected | CLint [13]: 1.29 μL/min/mg Protein | Vmax [13]: 74.9 pmol/min/mg Protein | n (Hill coefficient) [13]: 1.0 | CLint [14]: 1.27 μL/min/mg Protein | Ki ([14]; substrate inhibition): 59 µM | Hepatocytes (species in which the metabolite was found) [9]: H, D, Mk, M, R | CLint [15]: 0.60 μL/min/mg Protein | n (Hill coefficient) [15]: 0.8
Structure (SMILES): Cc1cccc(COC2OC(C(=O)O)C(O)C(O)C2O)c1CNc1cc(C(=O)N2CCC2)cn2c(C)c(C)nc12 (centres unmarked) [M15]

Vmax [5]: 23.2 pmol/min/mg protein | Hepatocytes (species in which the metabolite was found) [9]: H, D, M, R
Structure (SMILES): Cc1cccc(C)c1CNc1cc(C(=O)O)cn2c(C)c(C)nc12 [M23, 8-((2,6-dimethylbenzyl)amino)-2,3-dimethylimidazo[1,2-a]pyridine-6-carboxylic acid]

Structure (SMILES): [F-].[Na+] [NaF]
inhibition of formation of M23 from JP-1366 ([16]; 100 μM NaF): 18.9% ± 3.9% | inhibition of formation of M23 from JP-1366 ([16]; 1000 μM NaF): 73.3% ± 0.3%

Papp A→B at 1 h, 4 µM ([17]; Caco-2, pH 7.4): 9.75 ± 0.68 ×10⁻⁶ cm/s | Papp B→A at 1 h, 4 µM ([17]; Caco-2, pH 7.4): 12.2 ± 1.51 ×10⁻⁶ cm/s | efflux ratio at 1 h, 4 µM ([17]; pH 7.4, Caco-2, mean Papp,BA / mean Papp,AB, read-out: ER): 1.3
Structure (SMILES): CC(C)NCC(O)COc1cccc2ccccc12 (centres unmarked) [Propranolol, reference compound]

Structure (SMILES): CCCC(C(=O)OCCN(CC)CC)(c1ccccc1)c1ccccc1 [SKF-525A, reference compound]
effect on formation of M23 from JP-1366 ([12]; SKF-525A 10 μM and 100 μM, human liver microsomes): not inhibited

Structure (SMILES): CNCc1cc(-c2ccccc2F)n(S(=O)(=O)c2cccnc2)c1 [Vonoprazan]
pKa [18]: 9.37

Structure (SMILES): COc1ccc2nc([S@@+]([O-])Cc3ncc(C)c(OC)c3C)[nH]c2c1 [esomeprazole, reference compound]
% time pH > 4.0 over a period of 24 h ([19]; MAD): 56.56% ± 22.47% | % time pH > 4.0 over a period of 24 h ([19]; SAD): 72.06% ± 13.43% | % time pH > 4 at nighttime ([19]; repeated 40 mg dose): 56.56% ± 22.47%

Structure (SMILES): COc1ccc2[nH]c([S+]([O-])Cc3ncc(C)c(OC)c3C)nc2c1 (centres unmarked) [omeprazole]
plasma exposure in poor metabolizers with a CYP2C19 mutation [20]: five-fold higher

Structure (SMILES): Cc1nc2cc(C(=O)N(C)C)cc(O[C@H]3CCOc4cc(F)cc(F)c43)c2[nH]1 [tegoprazan]
Cmax ([21]; 100 mg once daily, day 1): 1413 ± 24.7 ng/mL | Cmax ([21]; 100 mg once daily, day 7): 845.2 ± 40.7 ng/mL | decrease of Cmax after repeated administration compared with a single dose ([21]; 100 mg once daily): 40% | % time pH > 4 over a 24 h period ([21]; repeated oral dose of 100 mg): 70.4% | % time pH > 4 over a 24 h period ([21]; single oral dose of 50 mg, six healthy subjects): 48.9% | IC50 [22]: 0.53 µM | % time pH > 4 over a 24 h period [23]: 66.0 ± 15.7% | contribution of CYP3A4 to metabolism to active metabolite M1 [24]: about 75%
